# How the values were obtained:
# [1] = biological target: CMII (bovine cardiac myosin II, MYH7) (Bos taurus, UniProt Q9BE39); test: NADH-linked ATPase assay, quadratic […] binding fit; type: biochemical
# [2] = biological target: SkMII (skeletal muscle myosin II); test: as above; type: biochemical
# Sequence of CMII (bovine cardiac myosin II, MYH7) (Q9BE39 whole entry): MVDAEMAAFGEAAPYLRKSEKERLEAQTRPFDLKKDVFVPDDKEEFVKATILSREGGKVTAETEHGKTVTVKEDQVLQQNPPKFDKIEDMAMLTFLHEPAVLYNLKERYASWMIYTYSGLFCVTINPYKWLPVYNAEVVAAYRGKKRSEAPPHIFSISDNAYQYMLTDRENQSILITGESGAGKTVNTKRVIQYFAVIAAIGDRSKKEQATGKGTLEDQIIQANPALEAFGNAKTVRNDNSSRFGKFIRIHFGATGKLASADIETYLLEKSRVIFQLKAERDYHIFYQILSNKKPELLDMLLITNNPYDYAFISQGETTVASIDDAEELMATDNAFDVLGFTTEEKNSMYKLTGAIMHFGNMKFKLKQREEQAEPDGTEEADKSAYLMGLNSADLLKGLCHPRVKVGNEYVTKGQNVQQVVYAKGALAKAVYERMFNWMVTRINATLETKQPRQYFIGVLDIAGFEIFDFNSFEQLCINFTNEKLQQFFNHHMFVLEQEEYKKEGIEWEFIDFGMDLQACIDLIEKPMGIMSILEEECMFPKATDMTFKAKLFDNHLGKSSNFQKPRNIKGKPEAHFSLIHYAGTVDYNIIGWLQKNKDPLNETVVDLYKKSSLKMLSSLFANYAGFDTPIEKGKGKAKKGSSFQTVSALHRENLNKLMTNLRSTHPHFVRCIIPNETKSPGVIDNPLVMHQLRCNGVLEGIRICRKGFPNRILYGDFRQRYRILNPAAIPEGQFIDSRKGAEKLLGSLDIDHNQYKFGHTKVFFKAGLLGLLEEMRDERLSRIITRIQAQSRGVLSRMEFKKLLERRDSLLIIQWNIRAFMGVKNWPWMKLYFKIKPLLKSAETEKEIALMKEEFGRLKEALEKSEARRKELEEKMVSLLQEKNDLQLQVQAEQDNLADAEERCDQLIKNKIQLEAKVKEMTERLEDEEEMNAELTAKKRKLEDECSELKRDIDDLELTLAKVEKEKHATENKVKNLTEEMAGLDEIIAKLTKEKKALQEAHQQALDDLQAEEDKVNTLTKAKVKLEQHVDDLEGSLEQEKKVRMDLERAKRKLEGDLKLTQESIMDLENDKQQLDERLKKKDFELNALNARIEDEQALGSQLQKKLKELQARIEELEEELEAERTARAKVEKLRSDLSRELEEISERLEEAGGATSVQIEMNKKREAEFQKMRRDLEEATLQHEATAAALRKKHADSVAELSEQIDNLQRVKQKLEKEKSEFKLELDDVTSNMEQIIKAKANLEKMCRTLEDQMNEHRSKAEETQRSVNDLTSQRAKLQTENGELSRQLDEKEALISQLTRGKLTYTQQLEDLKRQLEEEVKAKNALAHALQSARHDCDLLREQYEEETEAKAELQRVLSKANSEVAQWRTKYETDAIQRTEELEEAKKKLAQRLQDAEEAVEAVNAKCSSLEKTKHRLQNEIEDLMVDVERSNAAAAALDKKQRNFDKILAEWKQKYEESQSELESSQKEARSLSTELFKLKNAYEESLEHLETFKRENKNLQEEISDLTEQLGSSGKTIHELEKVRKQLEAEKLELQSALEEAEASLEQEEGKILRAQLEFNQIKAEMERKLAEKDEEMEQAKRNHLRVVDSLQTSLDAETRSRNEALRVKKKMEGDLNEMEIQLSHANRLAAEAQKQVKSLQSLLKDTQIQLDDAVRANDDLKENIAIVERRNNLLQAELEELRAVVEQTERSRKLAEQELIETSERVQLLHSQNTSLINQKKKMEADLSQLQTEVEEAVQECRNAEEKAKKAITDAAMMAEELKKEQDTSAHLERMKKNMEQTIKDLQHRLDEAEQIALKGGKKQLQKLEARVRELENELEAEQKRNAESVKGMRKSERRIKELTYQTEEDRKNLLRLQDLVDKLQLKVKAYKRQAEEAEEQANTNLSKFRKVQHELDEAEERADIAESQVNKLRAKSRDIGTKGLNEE
Compound,Ki [1] [nM],Ki [2] [nM]
Cc1ccc2c(c1)C(=O)[C@]1(O)CCN(c3ccccc3)C1=N2 [Blebbistatin],1900,280
"Cc1ccc2c(c1)C(=O)[C@]1(O)CCN(c3cnc4nc(C)oc4c3)C1=N2 [Skeletostatin 1, (S)-3a-hydroxy-6-methyl-1-(2-methyloxazolo[4,5-b]pyridin-6-yl)-1,2,3,3a-tetrahydro-4H-pyrrolo[2,3-b]quinolin-4-one]",83000,480
"CC(=O)Nc1ccc(N2CC[C@@]3(O)C(=O)c4cc(C)ccc4N=C23)cc1 [Skeletostatin 2, (S)-N-(4-(3a-hydroxy-6-methyl-4-oxo-2,3,3a,4-tetrahydro-1H-pyrrolo[2,3-b]quinolin-1-yl)phenyl)acetamide]",34000,270
"Cc1ccc2c(c1)C(=O)[C@]1(O)CCN(c3ccc(N4CCOCC4)cc3)C1=N2 [Skeletostatin 3, (S)-3a-hydroxy-6-methyl-1-(4-morpholinophenyl)-1,2,3,3a-tetrahydro-4H-pyrrolo[2,3-b]quinolin-4-one]",> 56000,790
